The assay in a line: 1O2 production in solutions, SOSG indicator, X-ray irradiation. Conditions: either with or without X-ray. The method, then:
1 mL of 0.05 mg M-SAO@SiO2/mL was added in a quartz cuvette (equilibrated with air at room temperature) containing 1 μM of SOSG. For controls, SAO, MC540, and water were analyzed. The solutions were irradiated by X-ray (at an irradiance of 1 Sv/h for 20 min, with a 1-min intermission after each 5-min irradiation cycle. The fluorescence signals (ex/em: 504/525 nm) were measured on a Hitachi F-7000 fluorescence spectrophotometer.
There is a significant overlap between the XEOL of SAO and the excitation wavelength of MC540 (FIG. 9A). Therefore, the ability of M-SAO@SiO2 nanoparticles irradiated by X-ray to relay energy in the form of visible photons to MC540 and as a result, producing ^1O2 was investigated. A common ^1O2 indicator, singlet oxygen sensor green (SOSG, Invitrogen) was used to investigate this effect. SOSG is a fluorescent compound which undergoes a structural change in the presence of ^1O2. The process is accompanied by an increase of fluorescence (ex/em: 504/525 nm). Therefore, by measuring the fluorescence change, the ^1O2 generation in solutions or cells can be monitored. Using SOSG, ^1O2 generation with a M-SAO@SiO2 nanoparticle solution (50 μg/mL) under X-ray irradiation was studied (1 Sv/h, FIG. 9B). Compared to the background, the intensity of 525 nm fluorescence was increased by 8, 25, 35, and 45% after 5, 10, 15, and 20 min X-ray irradiation, respectively (FIG. 9B).

Molecules are shown by their SMILES.

Turning to `CCCCN1C(=O)C(=C/C=C/C=C2\Oc3ccccc3N2CCCS(=O)(=O)[O-])C(=O)N(CCCC)C1=S.[Na+]` [MC540, merocyanine 540], the “increase in fluorescence (1O2, SOSG)” value is listed as “minimal increase in fluorescence”.
